According to patent US12516019B2, “Amphoteric compounds” (Eastman Chemical Company, priority 2015, dated 2026):

Experiments:
[1] = Foam height test, Standard Test Method for Foaming Properties of Surface-Active Agents (ASTM 1173-07); assay type: physicochemical; conditions: 49° C.; for Foam height at time t = 0: t = 0 min; for Foam height at time t = 1: t = 1 min; for Foam height at time t = 2: t = 2 min; for Foam height at time t = 3: t = 3 min; for Foam height at time t = 4: t = 4 min; for Foam height at time t = 5: t = 5 min
From the text: The Standard Test Method for Foaming Properties of Surface-Active Agents (ASTM 1173-07) for 0.1 wt % and 1.0 wt % was used to determine the foaming properties of the amphoteric compounds of the formula 1 described herein. This method generates foam under low-agitation conditions and is generally used for moderate- and high-foam surfactants. This test gathers data on initial foam height and foam decay. Foam decay provides information on foam stability.
The apparatus for carrying out this test includes a jacketed column and a pipet. The jacketed column serves as a receiver, while the pipet delivers the surface-active solution.
Solutions of each surface-active agent to be measured were prepared in borosilicate glass jars a day ahead of time, using ambient temperature ingredients, and were slowly rolled overnight to homogenize. The solutions were then removed from the rollers and equilibrated in a constant temperature bath (49° C.+/−1° C.) for at least 1 hour before measurement. The solution of the amphoteric compound to be tested was added to the receiver (50 mL) and to the pipet (200 mL). The pipet was positioned above the receiver and opened. As the solution fell and made contact with the solution in the receiver, foam was generated. When the pipet was empty, the time was noted and an initial foam height was recorded. The foam height was recorded each minute for five minutes. Exact size specifications for the glassware can be found in ASTM 1173-07. The foam height results for each amphoteric compound 1 and representative standards are listed below in Tables 1 (0.1% concentration) and 2 (1% concentration).

[2] = Critical micelle concentration from surface tension (Wilhelmy plate, K100C Tensiometer); assay type: physicochemical; conditions: deionized water, ambient temperature
Experimental: The critical micelle concentration (CMC) is an important characteristic of a surfactant, and the CMC values were determined for the amphoteric compounds of formula 1. The CMC is defined as the concentration at which micelle formation first begins, and for surface tension determination of CMC, is typically assigned as the concentration of the intersection of two straight lines through the data, where the first line is the linear portion of the initial decline in surface tension with increasing surfactant concentration, and the second is the line of constant surface tension.
The critical micelle concentration was determined from plots of surface tension as a function of the logarithm of active surfactant concentration. Surface tension was measured via the Wilhelmy plate technique. In this method, the downward force of a rigorously clean plate probe that just contacts the liquid surface of the test sample is measured, and the surface tension is calculated from knowledge of the contact angle the liquid makes with the probe surface and the length of the probe plate.
A K100C Tensiometer (Kruss GmbH) was used to measure surface tension of solutions in a glass sample vessel. All measurements were made under ambient temperature conditions.
The tensiometer was equipped with a computer-controlled microdispensing and aspirating system to automate surfactant concentration adjustments of the test solution while maintaining constant solution volume between successive measurements. A roughened platinum plate probe was used. Cleanliness of probe, sample vessel, and microdispensing system was verified after cleaning between samples by measuring the surface tension of pure deionized water run through the system as a control.
100 mL of the 1 mg/L surfactant solution was added to the clean sample vessel and placed in the instrument. The plate probe was rinsed with deionized water and flame treated to combust off residual organic impurities, then mounted in position in the tensiometer. The experiment was initiated and run through the LabDesk version 3.2.2 (Kruss GmbH) software.
The surface tension measurements were run sequentially (and automatically) from most dilute to most concentrated by incrementally injecting known volume aliquots of the 10,000 mg/L surfactant solution into the sample, homogenizing the sample after injection by stirring for 30 seconds via a magnetic stir bar in the solution, and then aspirating out equal volume that was added to the sample vessel to keep the total sample volume constant for each measurement.
The sample vessel was then automatically moved into measurement position, and the surface tension measurement was made and recorded. This sequence was repeated until all concentrations had been measured.
The active surfactant concentration range spanned from 1 mg/L to 5000 mg/L over 50 concentration increments, equally spaced on a logarithmic scale over the full range of concentrations measured.
The sample at each concentration was measured 10 times, and the average of the 10 measures was plotted against the logarithm of the surfactant concentration.
After completing the full range of concentrations, the software provided best-fit lines to estimate CMC, and these regression lines were manually adjusted as needed to give the broadest range of linear behavior for each line.

Row | Compound | Foam height at time t = 0 ([1]; 1 g/L (0.1 weight %)) | Foam height at time t = 1 ([1]; 1 g/L (0.1 weight %)) | Foam height at time t = 2 ([1]; 1 g/L (0.1 weight %)) | Foam height at time t = 3 ([1]; 1 g/L (0.1 weight %)) | Foam height at time t = 4 ([1]; 1 g/L (0.1 weight %)) | Foam height at time t = 5 ([1]; 1 g/L (0.1 weight %)) | Foam height at time t = 0 ([1]; 10 g/L (1.0 weight %)) | Foam height at time t = 1 ([1]; 10 g/L (1.0 weight %)) | Foam height at time t = 2 ([1]; 10 g/L (1.0 weight %)) | Foam height at time t = 3 ([1]; 10 g/L (1.0 weight %)) | Foam height at time t = 4 ([1]; 10 g/L (1.0 weight %)) | Foam height at time t = 5 ([1]; 10 g/L (1.0 weight %)) | Critical micelle concentration (CMC) [2]
1 | cocamidopropyl betaine [reference compound] | 160 mm | 159 mm | 158 mm | 158 mm | 158 mm | 158 mm | 174 mm | 172 mm | 171 mm | 171 mm | 170 mm | 170 mm | 12.7 mg/L
2 | CCCCCCCCCCCCNC(=O)CCCC[N+](C)(C)CC(O)CS(=O)(=O)[O-] (stereo not shown) [Example 21, 3-((5-laurylamino-5-oxopentyl)dimethylammonio)-2-hydroxypropanesulfonate] | 157 mm | 156 mm | 153 mm | 151 mm | 149 mm | 147 mm | 173 mm | 171 mm | 170 mm | 170 mm | 170 mm | 169 mm | 104.5 mg/L
3 | CCCCCCCCCCCCOC(=O)CCCC[N+](C)(C)CC(O)CS(=O)(=O)[O-] (stereo not shown) [Example 9, 3-(4-(Lauryloxycarbonylbutyl)dimethylammonio)-2-hydroxypropanesulfonate] | 185 mm | 175 mm | 173 mm | 170 mm | 170 mm | 170 mm | 195 mm | 190 mm | 180 mm | 180 mm | 180 mm | 180 mm | –
4 | CCCCCCCCCCCCNC(=O)CCC[N+](C)(C)CC(O)CS(=O)(=O)[O-] (stereo not shown) [Example 12, 3-((4-laurylamino-4-oxobutyl)dimethylammonio)-2-hydroxy-propanesulfonate] | 160 mm | 157 mm | 155 mm | 153 mm | 151 mm | 150 mm | 182 mm | 180 mm | 178 mm | 177 mm | 176 mm | 175 mm | 80.9 mg/L
5 | (4-Laurylamino-4-oxobutyl)dimethylammonioacetate [Example 11] | 174 mm | 172 mm | 171 mm | 171 mm | 170 mm | 170 mm | 182 mm | 180 mm | 179 mm | 178 mm | 178 mm | 177 mm | 76.5 mg/L
6 | CCCCCCCCCCCC[N+](C)(C)CCCS(=O)(=O)[O-] [N-lauryl-N,N-dimethyl-3-ammonio-1-propanesulfonate, reference compound] | – | – | – | – | – | – | – | – | – | – | – | – | 962 mg/L
7 | (3-Lauryloxycarbonylpropyl)dimethylammonioacetate [Example 3] | 171 mm | 170 mm | 170 mm | 169 mm | 169 mm | 169 mm | 165 mm | 162 mm | 160 mm | 158 mm | 158 mm | 156 mm | 24.2 mg/L
8 | (4-Lauryloxycarbonylbutyl)dimethylammonioacetate [Example 8] | – | – | – | – | – | – | 185 mm | 175 mm | 170 mm | 170 mm | 170 mm | 165 mm | –
9 | (5-Laurylamino-5-oxopentyl)dimethylammonioacetate [Example 20] | 180 mm | 175 mm | 170 mm | 170 mm | 170 mm | 170 mm | 175 mm | 170 mm | 170 mm | 170 mm | 165 mm | 160 mm | –
10 | CCCCCCCCCCCCOC(=O)CCC[N+](C)(C)CC(O)CS(=O)(=O)[O-] (stereo not shown) [Example 4, 3-(3-(Lauryloxycarbonylpropyl)dimethylammonio)-2-hydroxypropanesulfonate] | 142 mm | 139 mm | 135 mm | 132 mm | 129 mm | 127 mm | 173 mm | 170 mm | 167 mm | 162 mm | 158 mm | 154 mm | –
11 | cocamidopropyl hydroxysultaine [reference compound] | – | – | – | – | – | – | – | – | – | – | – | – | 9.5 mg/L
